Values quoted from earlier work in US20210213050A1, “Compositions and Methods for the Removal of Extraneous Calcium Hydroxyapatite” (HENRY FORD HEALTH SYSTEM, priority 2018, published 2021).

Assays:
[1] = fold higher than CaHA; proposed mechanism

O=S([O-])S(=O)(=O)[O-].[Na+].[Na+] [SMB, sodium metabisulfite]
CaHA remaining after topical treatment alone (porcine skin, topical SMB alone, histology after approximately 24 hours): approximately 50%

O=S([O-])([O-])=S.[Ca+2] [calcium thiosulfate salt, calcium thiosulfate]
solubility of calcium thiosulfate salt relative to CaHA [1]: 250- to 100,000 fold

O=S([O-])([O-])=S.[Na+].[Na+] [sodium thiosulfate]
ability to dissolve previously injected CaHA microspheres (porcine skin samples injected subdermally with CaHA, intralesional sodium thiosulfate 0.2 mL, 12.5 g/50 mL, alone or with topical sodium metabisulfite): able to dissolve previously injected CaHA microspheres | visible CaHA microspheres on histologic analysis of the treated area (porcine skin, intralesional sodium thiosulfate, 24 hours later): no visible CaHA microspheres were observed
